According to patent US20230117034A1, “PYRAZOLOTRIAZINES” (Bayer Aktiengesellschaft, priority 2019, published 2023):
pIC50: −log10 of the molar value.

Tests used:
[1] = test system: CAL-120, human breast adenocarcinoma cells; experiment: Proliferation assay CAL-120 (crystal violet, 4 days); type: cell-based; conditions: Homo sapiens, CAL-120, 96 h, CAL-120 cells, median, read-out: Prolif-CAL-120, IC50-[mol/l] (median)
How it was run: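 Growth was measured by crystal violet staining after cells had been treated with compounds (0.01-10 µmol/L, 0.1% DMSO) for 4 days, beginning 24 h after seeding. Values were normalized to a zero-point plate and to untreated controls, and IC50 values were derived by a four-parameter fit.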

[2] = target: T1, CYCLIN K (nuclear staining in CAL-120 cells) (Homo sapiens, UniProt O75909); experiment: CYCLIN K nuclear protein level: immunofluorescence high content analysis (CAL-120); type: cell-based; conditions: 24 h, 50% reduction of nuclear CCNK staining intensity, median, read-out: CYCLIN K degradation IF, DC50-[mol/l] (median)
T1 construct: endogenous in cells; host or cells: CAL-120 human breast cancer cells (DSMZ ACC 459)
T1 sequence (O75909 whole entry): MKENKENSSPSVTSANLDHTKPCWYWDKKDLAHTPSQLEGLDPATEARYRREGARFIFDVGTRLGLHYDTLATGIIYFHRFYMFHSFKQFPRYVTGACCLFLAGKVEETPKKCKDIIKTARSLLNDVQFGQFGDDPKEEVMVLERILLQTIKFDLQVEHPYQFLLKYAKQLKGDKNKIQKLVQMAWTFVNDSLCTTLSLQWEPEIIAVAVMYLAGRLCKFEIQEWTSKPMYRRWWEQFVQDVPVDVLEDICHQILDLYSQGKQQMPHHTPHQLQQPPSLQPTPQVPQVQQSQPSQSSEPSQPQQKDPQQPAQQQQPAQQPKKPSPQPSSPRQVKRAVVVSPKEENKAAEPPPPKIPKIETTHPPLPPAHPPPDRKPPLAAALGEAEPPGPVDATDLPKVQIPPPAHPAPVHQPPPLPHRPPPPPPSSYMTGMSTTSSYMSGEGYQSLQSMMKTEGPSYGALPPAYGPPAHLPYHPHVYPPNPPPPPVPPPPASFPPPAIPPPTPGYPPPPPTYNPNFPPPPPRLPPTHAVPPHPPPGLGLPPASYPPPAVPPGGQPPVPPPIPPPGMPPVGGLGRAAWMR
T1 sequence (Q9NYV4 whole entry partner): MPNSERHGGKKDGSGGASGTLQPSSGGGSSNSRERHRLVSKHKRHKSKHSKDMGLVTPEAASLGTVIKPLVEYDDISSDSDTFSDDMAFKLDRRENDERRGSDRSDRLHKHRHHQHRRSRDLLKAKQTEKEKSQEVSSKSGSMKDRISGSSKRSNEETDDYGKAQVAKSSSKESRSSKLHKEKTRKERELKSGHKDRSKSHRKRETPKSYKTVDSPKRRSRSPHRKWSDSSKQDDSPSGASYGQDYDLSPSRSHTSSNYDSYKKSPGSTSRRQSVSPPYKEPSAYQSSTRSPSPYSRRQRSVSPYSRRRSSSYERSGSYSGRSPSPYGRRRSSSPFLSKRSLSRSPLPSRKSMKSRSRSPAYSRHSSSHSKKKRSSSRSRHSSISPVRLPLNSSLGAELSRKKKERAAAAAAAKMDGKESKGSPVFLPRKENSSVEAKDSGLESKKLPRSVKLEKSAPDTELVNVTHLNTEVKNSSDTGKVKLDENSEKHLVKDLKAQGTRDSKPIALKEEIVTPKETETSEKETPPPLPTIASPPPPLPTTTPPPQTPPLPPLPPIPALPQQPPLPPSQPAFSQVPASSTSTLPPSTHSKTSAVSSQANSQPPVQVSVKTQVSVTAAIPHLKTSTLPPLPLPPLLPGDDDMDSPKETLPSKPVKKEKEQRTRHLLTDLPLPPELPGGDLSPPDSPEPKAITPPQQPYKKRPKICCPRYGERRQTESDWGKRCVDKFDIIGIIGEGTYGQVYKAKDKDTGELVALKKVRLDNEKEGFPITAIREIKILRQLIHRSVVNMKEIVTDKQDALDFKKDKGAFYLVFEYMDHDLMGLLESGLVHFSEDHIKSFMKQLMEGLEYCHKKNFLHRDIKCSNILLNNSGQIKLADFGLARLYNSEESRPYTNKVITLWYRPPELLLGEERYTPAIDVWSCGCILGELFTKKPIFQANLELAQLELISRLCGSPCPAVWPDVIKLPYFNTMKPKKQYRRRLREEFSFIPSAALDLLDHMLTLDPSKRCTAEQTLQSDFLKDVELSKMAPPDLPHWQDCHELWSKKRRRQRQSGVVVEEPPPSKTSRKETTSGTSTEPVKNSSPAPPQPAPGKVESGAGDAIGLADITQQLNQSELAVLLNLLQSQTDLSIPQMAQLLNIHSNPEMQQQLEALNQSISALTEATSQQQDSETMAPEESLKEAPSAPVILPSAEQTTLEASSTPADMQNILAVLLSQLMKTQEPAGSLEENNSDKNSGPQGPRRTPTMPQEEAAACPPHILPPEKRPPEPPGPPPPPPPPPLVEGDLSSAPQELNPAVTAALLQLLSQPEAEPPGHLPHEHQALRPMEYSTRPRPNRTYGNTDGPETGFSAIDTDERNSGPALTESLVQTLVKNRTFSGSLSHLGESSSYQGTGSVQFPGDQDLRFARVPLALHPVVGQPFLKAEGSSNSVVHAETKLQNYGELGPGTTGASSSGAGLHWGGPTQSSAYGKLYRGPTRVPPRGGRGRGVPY
Procedure: 8. CYCLIN K nuclear protein level: immunofluorescence High Content Analysis
CAL-120 human breast cancer cells (DSMZ ACC 459) are seeded in 1536-well microtiter plates (800 cells per well) containing 50 nanoL of compounds in Dose-Response. Control wells received DMSO or Example 4. Plates are then incubated for 24 h at 37° C. in an humidified incubator and fixed with 4% PFA for 10 min. Then immunofluorescence (IF) against CYCLIN K (ThermoFisher Scientific CONK Antibody #PA5-85020, rabbit, 1:200 dilution) is performed using standard IF protocols. Cells are then stained with Hoechst 33342 (Life Technologies, H-1399, 0.1 microg/ml) and imaged on an automated confocal microscopy system (e.g. Perkin Elmer Opera Phenix). Nuclear and cytoplasmic intensity as well as the nuclear/cytoplasmic intensity ratio is determined by automated image analysis using custom generated scripts (MetaXpress). Data is then transferred to Genedata Screener software, normalized to DMSO and control and DC50 values (degrading concentration to achieve 50% reduction of nuclear CCNK staining intensity relative to controls) are reported.

CDK12/CycK = CDK12/CycK (Homo sapiens, UniProt Q9NYV4); experiment: CDK12/CycK high ATP kinase assay (TR-FRET, 2 mM ATP); type: biochemical; conditions: 2 mM ATP (high ATP); median; read-out: CDK12/CyclinK, 2 mM ATP (high ATP), IC50-[mol/l] (median)
CDK12/CycK, sequence (Q9NYV4 with tags, fused parts or gaps): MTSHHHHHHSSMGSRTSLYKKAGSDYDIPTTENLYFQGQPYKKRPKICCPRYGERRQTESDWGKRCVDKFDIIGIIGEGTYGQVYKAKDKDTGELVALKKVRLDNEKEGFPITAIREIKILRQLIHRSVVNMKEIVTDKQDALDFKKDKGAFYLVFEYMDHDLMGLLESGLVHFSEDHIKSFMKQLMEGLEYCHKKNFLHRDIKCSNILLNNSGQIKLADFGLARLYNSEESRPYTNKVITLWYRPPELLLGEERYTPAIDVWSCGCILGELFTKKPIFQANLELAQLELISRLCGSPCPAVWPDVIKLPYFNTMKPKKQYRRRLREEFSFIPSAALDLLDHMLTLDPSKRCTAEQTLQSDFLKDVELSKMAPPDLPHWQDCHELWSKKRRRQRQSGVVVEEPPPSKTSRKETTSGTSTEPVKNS
CDK12/CycK, sequence (O75909 1-300 partner limits assumed): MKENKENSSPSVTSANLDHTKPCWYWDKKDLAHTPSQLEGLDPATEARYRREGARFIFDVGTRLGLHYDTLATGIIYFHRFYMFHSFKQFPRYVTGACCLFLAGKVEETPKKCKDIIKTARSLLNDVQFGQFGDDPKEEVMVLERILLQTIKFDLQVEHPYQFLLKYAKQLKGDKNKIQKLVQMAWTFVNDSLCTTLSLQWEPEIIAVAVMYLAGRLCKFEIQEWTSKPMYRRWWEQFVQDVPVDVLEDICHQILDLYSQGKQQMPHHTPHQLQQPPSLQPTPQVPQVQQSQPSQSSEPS
How it was run: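 Read-out is TR-FRET (Eu-anti-rabbit IgG, anti-phospho-c-Myc Ser62 antibody, streptavidin-XL665) after EDTA stop. Reaction ran 60 min at 22 °C using 1 µM biotin-peptide and high ATP (2 mM) with roughly 0.75 nM recombinant CDK12/CycK, after 15 min compound pre-binding; normalised emission ratios yield IC50.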

Compound	pIC50 [1]	DC50 [2] [nM]	pIC50 (CDK12/CycK)
C[C@H]1CN(c2nc(NCc3nnc(-c4ccccc4)[nH]3)n3ncc(Br)c3n2)CCN1C.O=CO [Example 122, 8-bromo-2-[(3S)-3,4-dimethylpiperazin-1-yl]-N-[(5-phenyl-4H-1,2,4-triazol-3-yl)methyl]pyrazolo[1,5-a][1,3,5]triazin-4-amine formate]	7.73	0.735	< 4.70
Cc1ccc2[nH]c(CNc3nc(N4CCOCC4)nc4c(Br)cnn34)nc2c1 [Example 157, 8-bromo-N-[(5-methyl-1H-benzimidazol-2-yl)methyl]-2-(morpholin-4-yl)pyrazolo[1,5-a][1,3,5]triazin-4-amine]	8.75	0.119	6.17
c1cncc(-c2cnn3c(NCc4nc5ccccc5[nH]4)nc(N4CCOCC4)nc23)c1 [Example 108, N-[(1H-benzimidazol-2-yl)methyl]-2-(morpholin-4-yl)-8-(pyridin-3-yl)pyrazolo[1,5-a][1,3,5]triazin-4-amine]	7.05	2.91	< 4.70
Fc1cccc2[nH]c(CNc3nc(N4CCOCC4)nc4c(Br)cnn34)nc12 [Example 97, 8-bromo-N-[(4-fluoro-1H-benzimidazol-2-yl)methyl]-2-(morpholin-4-yl)pyrazolo[1,5-a][1,3,5]triazin-4-amine]	8.29	0.467	6.10
Brc1cnn2c(NCc3nnc(-c4ccccc4)[nH]3)nc(N3C[C@H]4C[C@@H]3CO4)nc12 [Example 118, 8-bromo-2-[(1R,4R)-2-oxa-5-azabicyclo[2.2.1]heptan-5-yl]-N-[(5-phenyl-4H-1,2,4-triazol-3-yl)methyl]pyrazolo[1,5-a][1,3,5]triazin-4-amine]	7.53	2.98	5.24
Cc1cccc2[nH]c(CNc3nc(N4CCOCC4)nc4c(Br)cnn34)nc12 [Example 150, 8-bromo-N-[(4-methyl-1H-benzimidazol-2-yl)methyl]-2-(morpholin-4-yl)pyrazolo[1,5-a][1,3,5]triazin-4-amine]	7.74	1.48	5.58
Clc1ccccc1-c1cnc(CNc2nc(N3CCOCC3)nc3c(Br)cnn23)[nH]1 [Example 96, 8-bromo-N-{[5-(2-chlorophenyl)-1H-imidazol-2-yl]methyl}-2-(morpholin-4-yl)pyrazolo[1,5-a][1,3,5]triazin-4-amine]	7.52	10.7	5.33
CN1CCN(c2nc(NCc3nc4c(F)c(F)ccc4[nH]3)n3ncc(C4CC4)c3n2)CC1 [Example 159, 8-cyclopropyl-N-[(4,5-difluoro-1H-benzimidazol-2-yl)methyl]-2-(4-methylpiperazin-1-yl)pyrazolo[1,5-a][1,3,5]triazin-4-amine]	8.76	0.0663	5.02
Fc1ccc(-c2nnc(CNc3nc(N4CCOCC4)nc4c(Br)cnn34)[nH]2)cc1F [Example 99, 8-bromo-N-{[5-(3,4-difluorophenyl)-4H-1,2,4-triazol-3-yl]methyl}-2-(morpholin-4-yl)pyrazolo[1,5-a][1,3,5]triazin-4-amine]	7.26	3.05	5.81
Fc1ccc(-c2cnn3c(NCc4nc5ccccc5[nH]4)nc(N4CCOCC4)nc23)cc1 [Example 106, N-[(1H-benzimidazol-2-yl)methyl]-8-(4-fluorophenyl)-2-(morpholin-4-yl)pyrazolo[1,5-a][1,3,5]triazin-4-amine]	7.33	2.45	< 5.00
CC1(C)CN(c2nc(NCc3nc4ccccc4[nH]3)n3ncc(C4CC4)c3n2)CCO1 [Example 123, N-[(1H-benzimidazol-2-yl)methyl]-8-cyclopropyl-2-(2,2-dimethylmorpholin-4-yl)pyrazolo[1,5-a][1,3,5]triazin-4-amine]	7.08	5.03	4.90
Brc1cnn2c(NCc3nnc(-c4ccccc4)[nH]3)nc(N3C[C@@H]4C[C@H]3CO4)nc12 [Example 120, 8-bromo-2-[(1S,4S)-2-oxa-5-azabicyclo[2.2.1]heptan-5-yl]-N-[(5-phenyl-4H-1,2,4-triazol-3-yl)methyl]pyrazolo[1,5-a][1,3,5]triazin-4-amine]	7.60	2.19	4.88
CN1CCN(c2nc(NCc3nc4c(F)cccc4[nH]3)n3ncc(C4CC4)c3n2)CC1 [Example 165, 8-cyclopropyl-N-[(4-fluoro-1H-benzimidazol-2-yl)methyl]-2-(4-methylpiperazin-1-yl)pyrazolo[1,5-a][1,3,5]triazin-4-amine]	8.38	0.155	4.99

The next lines start with the values.

pIC50 [1]	DC50 [2] [nM]	pIC50 (CDK12/CycK)	Compound
7.95	0.163	4.97	C[C@@H]1CN(c2nc(NCc3nc4ccccc4[nH]3)n3ncc(Br)c3n2)C[C@H](C)N1 [Example 142, N-(1H-benzimidazol-2-ylmethyl)-8-bromo-2-[(3R,5S)-3,5-dimethylpiperazin-1-yl]pyrazolo[1,5-a][1,3,5]triazin-4-amine]
7.33	4.92	5.17	CCC1COCCN1c1nc(NCc2nc3ccccc3[nH]2)n2ncc(Br)c2n1 (stereo not drawn) [Example 116, N-(1H-benzimidazol-2-ylmethyl)-8-bromo-2-(3-ethylmorpholin-4-yl)pyrazolo[1,5-a][1,3,5]triazin-4-amine]
7.92	2.46	5.76	Brc1cnn2c(NCc3nc4ccccc4[nH]3)nc(N3CCOCC3)nc12 [Example 4, N-[(1H-benzimidazol-2-yl)methyl]-8-bromo-2-(morpholin-4-yl)pyrazolo[1,5-a][1,3,5]triazin-4-amine]
8.30	0.354	6.39	C[C@@H]1CN(c2nc(NCc3nc4cc(F)ccc4[nH]3)n3ncc(Br)c3n2)C[C@H](C)O1 [Example 110, 8-bromo-2-[(2R,6S)-2,6-dimethylmorpholin-4-yl]-N-[(5-fluoro-1H-benzimidazol-2-yl)methyl]pyrazolo[1,5-a][1,3,5]triazin-4-amine]
8.31	0.115	6.75	C[C@@H]1CN(c2nc(NCc3nc4c(F)cccc4[nH]3)n3ncc(Br)c3n2)C[C@H](C)O1 [Example 109, 8-bromo-2-[(2R,6S)-2,6-dimethylmorpholin-4-yl]-N-[(4-fluoro-1H-benzimidazol-2-yl)methyl]pyrazolo[1,5-a][1,3,5]triazin-4-amine]
6.90	3.39	< 4.74	C[C@@H]1CN(c2nc(NCc3nc4ccccc4[nH]3)n3ncc(Br)c3n2)C[C@H](C)N1C [Example 129, N-(1H-benzimidazol-2-ylmethyl)-8-bromo-2-[(3R,5S)-3,4,5-trimethylpiperazin-1-yl]pyrazolo[1,5-a][1,3,5]triazin-4-amine]
7.27	1.2	4.96	C[C@@H]1CN(c2nc(NCc3nnc(-c4ccccc4)[nH]3)n3ncc(Br)c3n2)C[C@H](C)N1C [Example 125, 8-bromo-N-[(5-phenyl-4H-1,2,4-triazol-3-yl)methyl]-2-[(3R,5S)-3,4,5-trimethylpiperazin-1-yl]pyrazolo[1,5-a][1,3,5]triazin-4-amine]
7.61	1.74	5.88	C[C@H]1CCCCN1c1nc(NCc2nc3ccccc3[nH]2)n2ncc(Br)c2n1 [Example 141, N-[(1H-benzimidazol-2-yl)methyl]-8-bromo-2-[(2S)-2-methylpiperidin-1-yl]pyrazolo[1,5-a][1,3,5]triazin-4-amine]
7.55	2.77	5.01	C[C@@H]1CN(c2nc(NCc3nnc(-c4ccccc4)[nH]3)n3ncc(Br)c3n2)C[C@H](C)N1 [Example 127, 8-bromo-2-[(3R,5S)-3,5-dimethylpiperazin-1-yl]-N-[(5-phenyl-4H-1,2,4-triazol-3-yl)methyl]pyrazolo[1,5-a][1,3,5]triazin-4-amine]
8.26	0.249	5.03	CC1CN(C)CCN1c1nc(NCc2nc3ccccc3[nH]2)n2ncc(Br)c2n1 (stereo not drawn) [Example 156, N-(1H-benzimidazol-2-ylmethyl)-8-bromo-2-(2,4-dimethylpiperazin-1-yl)pyrazolo[1,5-a][1,3,5]triazin-4-amine]
